“And” between values parts separate entries of the source, which are not always exact repeats. Equal values may be shown once.
Assays:
[1] = biological target: T1, Human red-blood cell acetylcholinesterase (hAChE; EC 3.1.1.7) (Homo sapiens, UniProt P22303); assay: biochemical; details: pH 7.4, 37 °C, mean ± SEM, read-out: AChE (IC50 µM)
T1 construct: Human red-blood cell acetylcholinesterase; purchased Sigma-Aldrich (Prague, Czech Republic); host or cells: human red blood cells
Protocol: The AChE and BuChE inhibitory activity of the tested compounds was determined using a modified Ellman's method^31, 32.Human red-blood cell acetylcholinesterase (hAChE; EC 3.1.1.7), and human recombinant butyrylcholinesterase (hBuChE; EC 3.1.1.8), 5,5'-dithiobis(2-nitrobenzoic acid) (Ellman's reagent, DTNB), phosphate buffer (PB, pH 7.4), acetylthiocholine (ATC), and butyrylthiocholine (BTC), were purchased from Sigma-Aldrich (Prague, Czech Republic). Nunc polystyrene 96-well microplates with flat-bottom shape (ThermoFisher Scientific, USA) were used for the measurement and all the assay were carried out in 0.1 M KH2PO4/K2HPO4 buffer, pH 7.4. Enzyme solution was prepared at activity 2.0 units/mL in 2 mL aliquots. The assay mixture (100 µL) consisted of 40 µL of 0.1 M phosphate buffer (pH 7.4), 20 µL of 0.01 M DTNB, 10 µL of enzyme, and 20 µL of 0.01 M substrate (ATC iodide solution). Tested compounds were dissolved first in methanol (BIGI 23 in DMSO) and then further diluted by assay buffer to the final concentration. […] Enzyme with the inhibitor was preincubated for 5 min in the assay mixture and then the reaction was started by addition of 20 µL of substrate (ATC for AChE, BTC for BuChE). […] Each concentration was assayed in triplicate. The obtained data were used to compute the percentage inhibition (I; Equation 1): I = 1−(ΔAi)/(ΔA0) [%] [formula] ΔAi indicates the absorbance change provided by cholinesterase exposed to AChE inhibitors and ΔA0 indicates absorbance change caused by intact cholinesterase (phosphate buffer was used instead of AChE inhibitor solution).

Aβ1-42 = biological target: T2, Aβ1-42 (Homo sapiens, UniProt P05067); assay: Inhibition of Aβ1-42 self-aggregation (ThT fluorescence); type: biochemical; details: [Inhibitor]=[Aβ1-42]=50 µM, mean ± SEM
T2 construct: pre-treated Aβ1-42 samples (Bachem AG, Switzerland); purchased Bachem AG, Switzerland
Protocol: Experiments were performed by incubating the peptide in 10 mM phosphate buffer (pH=8.0) containing 10 mM NaCl, at 30 °C for 24 h (final Aβ concentration=50 µM with and without inhibitor (50 µM). The inhibitor was dissolved in methanol and diluted in the assay buffer. Blanks containing inhibitor and ThT were also prepared and evaluated to account for quenching and fluorescence properties. To quantify amyloid fibril formation, the ThT fluorescence method was used^36, 37. After incubation, samples were diluted to a final volume of 2.0 mL with […] glycine-NaOH buffer (pH= 8.5) containing 1.5 µM ThT. A 300-seconds-time scan of fluorescence intensity was carried out (λexc=446 nm; λem=490 nm), and values at plateau were averaged after subtracting the background fluorescence of 1.5 µM ThT solution. The fluorescence intensities were compared and the % inhibition was calculated.
The inhibitory activity of compounds BIGI-3e, BIGI-3h and BIGI-3k against the spontaneous aggregation of Aβ1-42 was determined in vitro using a thioflavin T (ThT)-based fluorometric assay^35. […].

SH-SY5Y cells = assay: Effect on Aβ25-35 peptide-induced cell death (MTT assay); type: cell-based; details: Homo sapiens, read-out: increase in cell viability
Protocol: Lyophilized synthetic Aβ25-35 peptide was dissolved in sterile water at a concentration of 2 mM, aliquoted and kept at -80°C until use. Aliquots were diluted in culture medium to achieve a final concentration of 30 µM and incubated for 72h at 37°C to form aggregated amyloid. SH-SY5Y cells were seeded in 96-well culture plates at a density of 12 × 10^4 cells per well in DMEM/F12 (1 :1) medium supplemented with 10% fetal bovine serum, 1X non-essential amino acids, 100 units/ml penicillin and 10 mg/ml streptomycin (Dutscher, France). Cultures were kept under a CO2/air (5%/95%) humidified atmosphere at 37°C. After 24h of incubation, the cultures were treated with 100 µl of the compound BIGI-3h or DMSO (0.1%) in DMEM/F12 (1:1) medium supplemented with 1% fetal bovine serum, 1X non-essential amino acids, 100 units/ml penicillin and 10 mg/ml streptomycin. After 24h of treatment, cells were co-incubated with Aβ25-35 peptide (30 µM) with or without the compound BIGI-3h for an additional period of 24h. MTT assay, a common colorimetric assay for assessing cell metabolic activity, was performed as described below.
The cell viability was assessed by measuring the reduction of MTT (3-(4,5-dimethylthiazol-2-yl)-2,5-diphenyltetrazolium bromide) to a formazan product. […] The absorbance at 570 nm and 630 nm (background) was measured using a microplate reader.

human AChE = biological target: T3, human AChE (Homo sapiens, UniProt P22303); assay: Kinetic study of inhibition of AChE hydrolysis (Lineweaver-Burk, nonlinear regression); type: biochemical; details: for Ki: substrate acetylthiocholine; for type of inhibition: sum-of-squares F-test, p<0.05
T3 construct: purchased Sigma-Aldrich (Prague, Czech Republic); host or cells: human red blood cells
Protocol: To obtain insight into the interactions of BIGI-3h and BIGI-3e with human AChE, a kinetic study was conducted. Substrate concentration - enzyme velocity curves were recorded in the presence of different concentrations of the tested compounds. […] The type of inhibition and corresponding inhibition constants (Ki and Ki') were determined by the nonlinear regression analysis of data. Results for each type model of inhibition (competitive, non-competitive, uncompetitive and mixed) were compared with sum-of-squares F-test. […] BIGI-3h and BIGI-3e bind to both free AChE and AChE-substrate complex, affecting the binding of substrate in the active site of enzyme, interacting with its allosteric peripheral anionic site. Interaction with this site causes conformational changes of the enzyme resulting also in changes of its active site. […]. Measured values are consistent with the IC50 values for AChE. It appears that both tested compounds tend to bind free AChE more than enzyme-substrate complex.

Tau(306-336) peptide = Tau(306-336) peptide (Homo sapiens, UniProt P10636); details: Tau(306-336) 50 µM, inhibitor 50 µM (1:1 ratio); mean ± SEM; 50 µM
Protocol: Subsequently, the sample was aliquoted dried and stored at -20 °C.
Fluorescence data were recorded every 10 min overnight with 1 min shaking at 800 rpm prior to each reading. Each inhibitor was assayed in triplicates in at least two independent experiments. […] Inhibition % are expressed as the mean ± SEM. […] Values were averaged and the presented values are expressed as the mean ± SEM.
Fluorescence data were recorded every 10 min overnight with 1 min shaking at 800 rpm prior to each reading.

[2] = binding to AChE-substrate complex

T3 sequence (P22303 32-617 isoform P22303-2 limits assumed): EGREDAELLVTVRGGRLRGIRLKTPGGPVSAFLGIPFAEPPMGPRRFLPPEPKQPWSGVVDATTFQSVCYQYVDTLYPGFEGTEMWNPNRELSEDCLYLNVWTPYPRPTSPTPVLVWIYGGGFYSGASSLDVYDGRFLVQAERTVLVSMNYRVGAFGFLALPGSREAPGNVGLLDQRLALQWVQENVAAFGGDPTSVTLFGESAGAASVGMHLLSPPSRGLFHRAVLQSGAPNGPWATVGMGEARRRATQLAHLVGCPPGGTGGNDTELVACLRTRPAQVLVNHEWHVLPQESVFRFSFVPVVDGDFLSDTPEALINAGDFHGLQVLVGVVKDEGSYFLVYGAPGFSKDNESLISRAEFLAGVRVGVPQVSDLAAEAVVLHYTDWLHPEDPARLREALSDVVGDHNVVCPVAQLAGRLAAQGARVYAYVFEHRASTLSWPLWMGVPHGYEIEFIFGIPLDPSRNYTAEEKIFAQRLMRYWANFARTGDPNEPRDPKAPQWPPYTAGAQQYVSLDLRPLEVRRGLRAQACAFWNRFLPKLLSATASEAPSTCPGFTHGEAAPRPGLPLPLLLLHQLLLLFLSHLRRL
T1 sequence (P22303 32-617 isoform P22303-2 limits assumed): as above
T2 sequence (P05067 672-713 limits assumed): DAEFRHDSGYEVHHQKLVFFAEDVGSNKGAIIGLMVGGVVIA
Sequence of Tau(306-336) peptide (P10636 623-653 limits assumed): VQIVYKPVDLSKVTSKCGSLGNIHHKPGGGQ

Row | SMILES | IC50 [1] [µM] | inhibition at 50 µM (Aβ1-42) [%] | % inhibition Aβ1-42 aggregation (Aβ1-42; 50 µM) [%] | viability at 10 µM (SH-SY5Y cells) [%] | viability at 20 µM (SH-SY5Y cells) [%] | Ki (human AChE; [2]) [nM] | Ki (human AChE; binding to free AChE) [nM] | type of inhibition (human AChE) | Inhibition of T (306-336) peptide self - aggregation (%) (Tau(306-336) peptide)
1 | CCOC(=O)C1=C(C)N(CCC2CCN(Cc3ccccc3)CC2)C(=O)NC1c1coc2c(Cl)cc(Cl)cc2c1=O (racemic) [BIGI-3h, ethyl 1-(2-(1-benzylpiperidin-4-yl)ethyl)-4-(6,8-dichloro-4-oxo-4H-chromen-3-yl)-6-methyl-2-oxo-1,2,3,4-tetrahydropyrimidine-5-carboxylate] | 0.06 | 66 ± 0.7 | 63.6 ± 1.3 | 40.4 | 61.4 | 77.6 ± 16.4 | 21.5 ± 5.19 | mixed non-competitive | 73.7% and 73.7 ± 5.4%
2 | CCOC(=O)C1=C(C)N(CCC2CCN(Cc3ccccc3)CC2)C(=O)NC1c1coc2ccc(Br)cc2c1=O (stereo not shown) [BIGI-3e, ethyl 1-(2-(1-benzylpiperidin-4-yl)ethyl)-4-(6-bromo-4-oxo-4H-chromen-3-yl)-6-methyl-2-oxo-1,2,3,4-tetrahydropyrimidine-5-carboxylate] | 0.06 | 63 ± 2.1 | – | – | – | 89.5 ± 12.5 | 51 ± 12.7 | mixed non-competitive | –
3 | CCOC(=O)C1=C(C)N(CCCC2CCN(Cc3ccccc3)CC2)C(=O)NC1c1coc2cc(CC)ccc2c1=O (stereo not shown) [BIGI-3k, ethyl 1-(3-(1-benzylpiperidin-4-yl)propyl)-4-(7-ethyl-4-oxo-4H-chromen-3-yl)-6-methyl-2-oxo-1,2,3,4-tetrahydropyrimidine-5-carboxylate] | 0.5 ± 0.02 | 63.8 ± 0.8 | – | – | – | – | – | – | –

— patent EP4168403B1 (priority 2020, dated 2021)
